Earlier results, collected in article PMC4862687, “GPCRs Direct Germline Development and Somatic Gonad Function in Planarians” (PLoS Biology, 2016).

Key:
pituitary-gonadal axis = conditions: intact rats; ref [55]; cited from earlier work
From the text: (§1) NPF expression in Drosophila brain is sexually dimorphic and is believed to be centrally involved in mating behavior [52]. Also, NPF-deficient flies show a decrease in egg laying capacity, but the same effect is not observed in NPFR-1-deficient flies. […] Conversely, in intact rats, NPY has an inhibitory effect ...

secretion of LH and GnRH = conditions: injection of NPY into sex steroid-primed ovariectomized rats; ref [53],[54]; cited from earlier work
From the text: as §1

GnRH neuronal output = system: GnRH neuronal output; design: method as in PMID 3131748, PMID 24221756; conditions: mammals and teleosts; ref [61],[62]; cited from earlier work

neuropeptide Y [NPY]
effect on reproduction / pituitary-gonadal axis (pituitary-gonadal axis): inhibitory effect on reproduction by suppressing the pituitary-gonadal axis | LH and GnRH secretion (secretion of LH and GnRH): induces secretion of LH and GnRH | GnRH neuronal output (GnRH neuronal output): positively modulates GnRH neuronal output
